# Assay results as given in patent publication US5422341A, “Motilin-like polypeptides with gastrointestinal motor stimulating activity” (Ohmeda Pharmaceutical Products Division Inc., priority 1993, dated 1995).
# Square brackets hold non-standard residues; d marks the D form. Peptide text beside a SMILES is read from it. * marks the point of attachment. X1 = C[N+](C)(C)[C@@H](Cc1ccccc1)C(=O)*; X2 = C#CCN(C)[C@@H](Cc1ccccc1)C(=O)*; NMeF = CN[C@@H](Cc1ccccc1)C(=O)O; Cha = N[C@@H](CC1CCCCC1)C(=O)O; dCha = N[C@H](CC1CCCCC1)C(=O)O
# Columns and labels:
# motilin receptor = biological target: T1, motilin receptor (Oryctolagus cuniculus, UniProt G1T803); assay: Determination of motilin receptor binding affinity (displacement of [125I-Tyr7, Nle13]motilin(porcine)); parameters: species or system rabbit; details: negative logarithm of the concentration displacing 50% of [125I-Tyr7, Nle13]motilin(porcine) from rabbit antral smooth muscle membranes; read-out: pIC50 (converted)
# T1 construct: from tissue; host or cells: rabbit antral smooth muscle membranes
# T1 sequence (G1T803 1-400): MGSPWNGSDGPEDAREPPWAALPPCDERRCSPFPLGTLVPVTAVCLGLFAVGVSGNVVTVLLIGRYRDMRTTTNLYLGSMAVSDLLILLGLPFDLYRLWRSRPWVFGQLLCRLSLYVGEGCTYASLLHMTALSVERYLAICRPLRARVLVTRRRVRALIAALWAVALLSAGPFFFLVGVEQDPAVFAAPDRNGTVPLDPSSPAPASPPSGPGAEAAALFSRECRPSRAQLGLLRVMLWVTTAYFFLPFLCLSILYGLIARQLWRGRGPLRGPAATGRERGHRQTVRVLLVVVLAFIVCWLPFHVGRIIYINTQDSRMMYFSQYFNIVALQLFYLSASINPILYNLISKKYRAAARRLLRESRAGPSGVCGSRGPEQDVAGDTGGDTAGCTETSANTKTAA
# Description: The motilin receptor binding affinity of the peptides of this invention was determined by using the general procedure of Bormans, Peelers and Vantrappen, Regul. […] Fitting was performed using the iterative least-squares procedure of the SAS-software package (SAS Institute, Inc., Cary, N.C., USA).
# [1] = biological target: segments of rabbit duodenum (Oryctolagus cuniculus, UniProt G1T803); assay: Rabbit duodenal smooth muscle strip tissue bath assay; format: cell-based; details: negative logarithm of the dose giving 50% of the maximal response to motilin; isotonic contraction of rabbit duodenum segments
# Chain of segments of rabbit duodenum (G1T803 1-400): as above
# Description: The contractile response of segments of rabbit duodenum was determined isotonically in the tissue bath according to the procedure of Depoortere et at., J. Gastrointestinal Motility, 1, 150-159 (1989). The experimental protocol consisted of an equilibration period of 1 hour; a challenge with 10^-4 M acetylcholine followed by a wash-out period; a cumulative dose-response curve of a compound with, at the end, the addition of 10^-7 M motilin; and finally 10^-4 M acetylcholine. If the final response to 10^-4 M acetylcholine differed by more than 5% from the initial response, the results were discarded. The compounds were tested in the concentration range 10^-11 to 10^-4 M. The point corresponding to 50% of the maximal response to motilin (Emax) was determined by fitting the equation E=Emax (1+EC50 /[L]) through the data points. […] The dose giving 50% of the response is expressed using its negative logarithm (pEC50).
IC50 (motilin receptor) [nM],pEC50 [1],Structure (SMILES)
1.29,7.13,CC[C@H](C)[C@H](NC(=O)[C@@H]1CCCN1C(=O)[C@@H](NC(=O)[C@@H](N)Cc1ccccc1)C(C)C)C(=O)N[C@@H](Cc1ccccc1)C(=O)N[C@H](C(=O)N[C@@H](Cc1ccc(O)cc1)C(=O)NCC(=O)N[C@@H](CCC(=O)O)C(=O)N[C@@H](CC(C)C)C(=O)N[C@@H](CCC(N)=O)C(=O)N[C@H](CCCNC(=N)N)C(=O)N[C@@H](CC(C)C)C(=O)N[C@@H](CCCCN)C(N)=O)[C@@H](C)O (H-FVPIFTYGELQ[dR]LK-NH2)
1.51,7.58,CC[C@H](C)[C@H](NC(=O)[C@H](C)NC(=O)[C@@H](NC(=O)[C@H](Cc1ccccc1)[N+](C)(C)C)C(C)C)C(=O)N[C@@H](Cc1ccccc1)C(=O)N[C@H](C(=O)N[C@@H](Cc1ccc(O)cc1)C(=O)NCC(=O)N[C@@H](CCC(=O)O)C(=O)N[C@@H](CC(C)C)C(=O)N[C@@H](CCC(N)=O)C(=O)N[C@@H](CCCNC(=N)N)C(=O)N[C@@H](CC(C)C)C(=O)N[C@@H](CCCCN)C(N)=O)[C@@H](C)O (X1-VAIFTYGELQRLK-NH2)
2.14,7.71,"CC[C@H](C)[C@H](NC(=O)[C@H](C)NC(=O)[C@@H](NC(=O)[C@@H](N)Cc1ccccc1)C(C)C)C(=O)N[C@@H](Cc1ccccc1)C(=O)N[C@H](C(=O)N[C@@H](Cc1ccc(O)cc1)C(=O)NCC(=O)N[C@@H](CCC(=O)O)C(=O)N[C@@H](CC(C)C)C(=O)N[C@@H](CCC(N)=O)C(=O)N[C@H](CCCNC(=N)N)C(=O)N[C@@H](CC(C)C)C(=O)N[C@@H](CCC(N)=O)C(=O)O)[C@@H](C)O [[Ala^3, D-Arg^ 12, Leu^13]pMOT(1-14)] (H-FVAIFTYGELQ[dR]LQ-OH)"
8.91,7.29,"CC[C@H](C)[C@H](NC(=O)[C@@H]1CCCN1C(=O)[C@@H](NC(=O)[C@@H](N)Cc1ccccc1)C(C)C)C(=O)N[C@@H](Cc1ccccc1)C(=O)N[C@H](C(=O)N[C@@H](Cc1ccc(O)cc1)C(=O)NCC(=O)N[C@@H](CCC(=O)O)C(=O)N[C@@H](CC(C)C)C(=O)N[C@@H](CCC(N)=O)C(=O)N[C@H](C)C(=O)N[C@@H](CC(C)C)C(=O)N[C@@H](CCC(N)=O)C(=O)O)[C@@H](C)O [[D-Ala^12, Leu^13]pMOT(1-14)] (H-FVPIFTYGELQ[dA]LQ-OH)"
1.95,7.31,CC[C@H](C)[C@H](NC(=O)[C@H](C)NC(=O)[C@@H](NC(=O)[C@H](Cc1ccccc1)[N+](C)(C)C)C(C)C)C(=O)N[C@@H](Cc1ccccc1)C(=O)N[C@H](C(=O)N[C@@H](Cc1ccc(O)cc1)C(=O)NCC(=O)N[C@@H](CCC(=O)O)C(=O)N[C@@H](CC(C)C)C(=O)N[C@@H](C)C(=O)N[C@H](CCCNC(=N)N)C(=O)N[C@@H](CC(C)C)C(=O)N[C@@H](CCC(N)=O)C(N)=O)[C@@H](C)O (X1-VAIFTYGELA[dR]LQ-NH2)
1.95,7.76,CC[C@H](C)[C@H](NC(=O)[C@H](C)NC(=O)[C@@H](NC(=O)[C@@H](N)Cc1ccccc1)C(C)C)C(=O)N[C@@H](Cc1ccccc1)C(=O)N[C@H](C(=O)N[C@@H](Cc1ccc(O)cc1)C(=O)NCC(=O)N[C@@H](CCC(=O)O)C(=O)N[C@@H](CC(C)C)C(=O)N[C@@H](CCC(N)=O)C(=O)N[C@H](CCCNC(=N)N)C(=O)N[C@@H](CC(C)C)C(=O)N[C@@H](CCC(N)=O)C(N)=O)[C@@H](C)O (H-FVAIFTYGELQ[dR]LQ-NH2)
1.45,7.22,CC[C@H](C)[C@H](NC(=O)[C@H](C)NC(=O)[C@@H](NC(=O)[C@H](Cc1ccccc1)[N+](C)(C)C)C(C)C)C(=O)N[C@@H](Cc1ccccc1)C(=O)N[C@H](C(=O)N[C@@H](Cc1ccc(O)cc1)C(=O)NCC(=O)N[C@@H](CCC(=O)O)C(=O)N[C@@H](CC(C)C)C(=O)N[C@@H](C)C(=O)N[C@H](CCCNC(=N)N)C(=O)N[C@@H](CC(C)C)C(=O)N[C@H](CCC(N)=O)C(N)=O)[C@@H](C)O (X1-VAIFTYGELA[dR]L[dQ]-NH2)
1.78,7.60,"CC[C@H](C)[C@H](NC(=O)[C@@H]1CCCN1C(=O)[C@@H](NC(=O)[C@@H](N)CC1CCCCC1)C(C)C)C(=O)N[C@@H](Cc1ccccc1)C(=O)N[C@H](C(=O)N[C@@H](Cc1ccc(O)cc1)C(=O)NCC(=O)N[C@@H](CCC(=O)O)C(=O)N[C@@H](CC(C)C)C(=O)N[C@@H](CCC(N)=O)C(=O)N[C@H](CCCNC(=N)N)C(=O)N[C@@H](CC(C)C)C(=O)N[C@@H](CCC(N)=O)C(=O)O)[C@@H](C)O [[Cha^1, D-Arg^12, Leu^13]pMOT(1-14)] (H-[Cha]VPIFTYGELQ[dR]LQ-OH)"
1.66,7.67,"CC[C@H](C)[C@H](NC(=O)[C@@H]1CCCN1C(=O)[C@@H](NC(=O)[C@@H](N)Cc1ccccc1)C(C)C)C(=O)N[C@@H](Cc1ccccc1)C(=O)N[C@H](C(=O)N[C@@H](Cc1ccc(O)cc1)C(=O)NCC(=O)N[C@@H](CCC(=O)O)C(=O)N[C@@H](CC(C)C)C(=O)N[C@@H](CCC(N)=O)C(=O)N[C@H](CCCNC(=N)N)C(=O)N[C@@H](CC(C)C)C(=O)N[C@@H](CCC(N)=O)C(=O)N[C@@H](CCC(=O)O)C(=O)N[C@@H](CCCCN)C(=O)N[C@@H](CCC(=O)O)C(=O)N[C@@H](CCCNC(=N)N)C(=O)N[C@@H](CC(N)=O)C(=O)N[C@@H](CCCCN)C(=O)NCC(=O)N[C@@H](CCC(N)=O)C(=O)O)[C@@H](C)O [[D-Arg^12, Leu^13]pMOT(1-22)]"
2,7.57,C#CCN(C)[C@@H](Cc1ccccc1)C(=O)N[C@H](C(=O)N1CCC[C@H]1C(=O)N[C@H](C(=O)N[C@@H](Cc1ccccc1)C(=O)N[C@H](C(=O)N[C@@H](Cc1ccc(O)cc1)C(=O)NCC(=O)N[C@@H](CCC(=O)O)C(=O)N[C@@H](CC(C)C)C(=O)N[C@@H](CCC(N)=O)C(=O)N[C@@H](CCCNC(=N)N)C(=O)N[C@@H](CC(C)C)C(=O)N[C@@H](CCC(N)=O)C(N)=O)[C@@H](C)O)[C@@H](C)CC)C(C)C (X2-VPIFTYGELQRLQ-NH2)
6.03,7.09,"CC[C@H](C)[C@H](NC(=O)[C@@H]1CCCN1C(=O)[C@@H](NC(=O)[C@@H](N)Cc1ccccc1)C(C)C)C(=O)N[C@@H](Cc1ccccc1)C(=O)N[C@H](C(=O)N[C@@H](Cc1ccc(O)cc1)C(=O)N[C@H](C)C(=O)N[C@@H](CCC(=O)O)C(=O)N[C@@H](CC(C)C)C(=O)N[C@@H](CCC(N)=O)C(=O)N[C@H](CCCNC(=N)N)C(=O)N[C@@H](CC(C)C)C(=O)N[C@@H](CCC(N)=O)C(=O)O)[C@@H](C)O [[D-Ala^8, D-Arg^12, Leu^13]pMOT(1-14), H-Phe-Val-Pro-Ile-Phe-Thr-Tyr-D-Ala-Glu-Leu-Gln-D-Arg-Leu-Gln-OH] (H-FVPIFTY[dA]ELQ[dR]LQ-OH)"
8.51,6.92,"CC[C@H](C)[C@H](NC(=O)[C@@H]1CCCN1C(=O)[C@@H](NC(=O)[C@@H](N)Cc1ccccc1)C(C)C)C(=O)N[C@@H](Cc1ccccc1)C(=O)N[C@H](C(=O)N[C@@H](Cc1ccccc1)C(=O)NCC(=O)N[C@@H](CCC(=O)O)C(=O)N[C@@H](CC(C)C)C(=O)N[C@@H](CCC(N)=O)C(=O)N[C@H](CCCNC(=N)N)C(=O)N[C@@H](CC(C)C)C(=O)N[C@@H](CCC(N)=O)C(=O)O)[C@@H](C)O [[Phe^7, D-Arg^12, Leu^13]pMOT(1-14)] (H-FVPIFTFGELQ[dR]LQ-OH)"
0.933,7.25,CC[C@H](C)[C@H](NC(=O)[C@H](C)NC(=O)[C@@H](NC(=O)[C@H](N)CC1CCCCC1)C(C)C)C(=O)N[C@@H](Cc1ccccc1)C(=O)N[C@H](C(=O)N[C@@H](Cc1ccc(O)cc1)C(=O)NCC(=O)N[C@@H](CCC(=O)O)C(=O)N[C@@H](CC(C)C)C(=O)N[C@@H](C)C(=O)N[C@H](CCCNC(=N)N)C(=O)N[C@@H](CC(C)C)C(=O)N[C@H](CCCCN)C(N)=O)[C@@H](C)O (H-[dCha]VAIFTYGELA[dR]L[dK]-NH2)
2.45,7.25,CC[C@H](C)[C@H](NC(=O)[C@@H]1CCCN1C(=O)[C@@H](NC(=O)[C@H](Cc1ccccc1)[N+](C)(C)C)C(C)C)C(=O)N[C@@H](Cc1ccccc1)C(=O)N[C@H](C(=O)N[C@@H](Cc1ccc(O)cc1)C(=O)NCC(=O)N[C@@H](CCC(=O)O)C(=O)N[C@@H](CC(C)C)C(=O)N[C@@H](C)C(=O)N[C@H](CCCNC(=N)N)C(=O)N[C@@H](CC(C)C)C(=O)N[C@H](CCC(N)=O)C(N)=O)[C@@H](C)O (X1-VPIFTYGELA[dR]L[dQ]-NH2)
1.02,7.95,CC[C@H](C)[C@H](NC(=O)[C@@H]1CCCN1C(=O)[C@@H](NC(=O)[C@H](Cc1ccccc1)NC)C(C)C)C(=O)N[C@@H](Cc1ccccc1)C(=O)N[C@H](C(=O)N[C@@H](Cc1ccc(O)cc1)C(=O)NCC(=O)N[C@@H](CCC(=O)O)C(=O)N[C@@H](CC(C)C)C(=O)N[C@@H](CCC(N)=O)C(=O)N[C@H](CCCNC(=N)N)C(=O)N[C@@H](CC(C)C)C(=O)N[C@@H](CCC(N)=O)C(N)=O)[C@@H](C)O (H-[NMeF]VPIFTYGELQ[dR]LQ-NH2)
7.59,6.82,"CC[C@H](C)[C@H](NC(=O)[C@@H]1CCCN1C(=O)[C@@H](NC(=O)[C@@H](N)Cc1ccccc1)C(C)C)C(=O)N[C@@H](Cc1ccccc1)C(=O)N[C@H](C(=O)N[C@@H](Cc1ccc(O)cc1)C(=O)NCC(=O)N[C@@H](CCC(=O)O)C(=O)N[C@@H](CC(C)C)C(=O)N[C@@H](CCC(N)=O)C(=O)N[C@H](CC(N)=O)C(=O)N[C@@H](CC(C)C)C(=O)N[C@@H](CCC(N)=O)C(=O)O)[C@@H](C)O [[D-Asn^12, Leu^13]pMOT(1-14)] (H-FVPIFTYGELQ[dN]LQ-OH)"
